From article PMC10463259, “Efficient NADPH-dependent dehalogenation afforded by a self-sufficient reductive dehalogenase” (The Journal of Biological Chemistry, 2023)

How the values were obtained:
[1] = target: T1, JtRdhA (reductive dehalogenase) (Jhaorihella thermophila, UniProt A0A1H5TYU2); assay: substrate turnover by purified enzyme, NADPH consumption and HPLC; assay type: biochemical
T1 construct: gene SAMN05421751_103106; full-length, N-terminal His-MBP-TEV fusion (JtRdhA^MBP), WP_104007082
T1 sequence (A0A1H5TYU2 1-1069): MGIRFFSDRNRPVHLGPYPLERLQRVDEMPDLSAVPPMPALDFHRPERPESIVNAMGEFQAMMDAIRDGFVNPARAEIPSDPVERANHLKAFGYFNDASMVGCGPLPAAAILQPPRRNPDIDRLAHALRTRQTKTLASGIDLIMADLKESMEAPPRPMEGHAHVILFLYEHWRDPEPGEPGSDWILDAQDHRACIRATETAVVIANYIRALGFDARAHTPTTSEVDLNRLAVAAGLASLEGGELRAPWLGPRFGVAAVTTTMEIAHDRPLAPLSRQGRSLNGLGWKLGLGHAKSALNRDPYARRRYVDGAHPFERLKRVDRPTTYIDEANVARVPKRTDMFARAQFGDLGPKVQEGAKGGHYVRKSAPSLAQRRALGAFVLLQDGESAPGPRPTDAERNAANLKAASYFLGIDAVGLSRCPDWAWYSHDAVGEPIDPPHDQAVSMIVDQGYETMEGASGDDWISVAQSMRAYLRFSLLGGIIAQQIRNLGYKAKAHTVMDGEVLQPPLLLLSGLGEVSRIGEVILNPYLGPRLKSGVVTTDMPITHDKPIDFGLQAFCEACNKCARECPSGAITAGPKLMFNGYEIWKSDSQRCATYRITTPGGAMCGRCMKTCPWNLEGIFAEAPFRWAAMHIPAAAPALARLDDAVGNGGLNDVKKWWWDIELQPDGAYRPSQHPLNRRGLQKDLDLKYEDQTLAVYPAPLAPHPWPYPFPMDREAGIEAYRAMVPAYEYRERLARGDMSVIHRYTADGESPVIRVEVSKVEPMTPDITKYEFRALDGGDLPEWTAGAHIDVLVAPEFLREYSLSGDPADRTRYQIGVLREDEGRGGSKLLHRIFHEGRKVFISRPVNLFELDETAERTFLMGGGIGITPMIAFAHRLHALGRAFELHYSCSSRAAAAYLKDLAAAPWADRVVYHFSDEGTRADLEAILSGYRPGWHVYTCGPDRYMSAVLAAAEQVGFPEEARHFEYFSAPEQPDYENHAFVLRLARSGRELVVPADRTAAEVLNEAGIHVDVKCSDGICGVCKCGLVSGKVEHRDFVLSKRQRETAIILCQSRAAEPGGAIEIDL

[2] = target: T1, JtRdhA (reductive dehalogenase); assay: NADPH consumption assay, Dixon plot vs 35-DB-4-OH; assay type: biochemical
[3] = target: T1, JtRdhA (reductive dehalogenase); assay: biphasic turnover assay, LC-MS of debrominated products; assay type: biochemical
[4] = substrate: O=C(O)c1ccc(O)c(Br)c1; assay: steady-state kinetics by NADPH consumption (KM), purified enzyme; assay type: biochemical, Jhaorihella thermophila; settings: cobalamin, 2x [4Fe-4S], [2Fe-2S], FMN
[5] = substrate: O=C(O)c1cc(Br)c(O)c(Br)c1; assay: EPR of cob(II)alamin with substrate (Br superhyperfine coupling); KM from steady-state NADPH oxidation; assay type: biochemical, Jhaorihella thermophila; settings: cobalamin, 2x [4Fe-4S], [2Fe-2S], FMN active site; displaces chloride, substrate bromine atoms less than […] Å from the Co2+ ion

Molecule: Oc1ccccc1I [2-Iodophenol, 2-iodophenol]
- NADPH consumption μM min^-1 [1]: 106 ± 3 µM/min

Molecule: O=C(O)c1cc(I)c(O)c(I)c1 [3,5 Diiodo-4-hydroxybenzoic acid]
- NADPH consumption μM min^-1 [1]: 124 ± 8 µM/min

Molecule: O=C(O)Cc1ccc(O)c(Br)c1 [3-bromo-4-hydroxyphenylacetic acid]
- NADPH consumption μM min^-1 [1]: 147 ± 3 µM/min

Molecule: O=C(O)c1cc(Cl)c(O)c(Cl)c1 [35-DC-4-OH, 3,5-dichloro-4-hydroxybenzoic acid]
- Ki [2]: 13.7 ± 3.6 µM

Molecule: CC(C)(c1cc(Br)c(O)c(Br)c1)c1cc(Br)c(O)c(Br)c1 [compound 1, tetrabromobisphenol A]
- biphasic turnover assay, LC-MS of debrominated products [3]: one of the most commonly used flame retardants TBBPA was determined to be a substrate for JtRdhA^MBP

B1: JtRdhA (reductive dehalogenase) (Jhaorihella thermophila) (protein)
chain: T1 sequence (A0A1H5TYU2 1-1069)
notes: full-length, N-terminal His-MBP-TEV fusion (JtRdhA^MBP), WP_104007082
- Km [4]: 21 ± 0.2 µM
- Km [5]: 19 ± 0.7 µM
